{"source": "ChEMBL document CHEMBL1201862", "about": "“PubChem BioAssay data set” (2004)", "key": {"Protein RecA": {"biological_target": "T1, Protein RecA (Mycobacterium tuberculosis, UniProt P9WHJ3)", "T1 sequence (P9WHJ3 whole entry)": "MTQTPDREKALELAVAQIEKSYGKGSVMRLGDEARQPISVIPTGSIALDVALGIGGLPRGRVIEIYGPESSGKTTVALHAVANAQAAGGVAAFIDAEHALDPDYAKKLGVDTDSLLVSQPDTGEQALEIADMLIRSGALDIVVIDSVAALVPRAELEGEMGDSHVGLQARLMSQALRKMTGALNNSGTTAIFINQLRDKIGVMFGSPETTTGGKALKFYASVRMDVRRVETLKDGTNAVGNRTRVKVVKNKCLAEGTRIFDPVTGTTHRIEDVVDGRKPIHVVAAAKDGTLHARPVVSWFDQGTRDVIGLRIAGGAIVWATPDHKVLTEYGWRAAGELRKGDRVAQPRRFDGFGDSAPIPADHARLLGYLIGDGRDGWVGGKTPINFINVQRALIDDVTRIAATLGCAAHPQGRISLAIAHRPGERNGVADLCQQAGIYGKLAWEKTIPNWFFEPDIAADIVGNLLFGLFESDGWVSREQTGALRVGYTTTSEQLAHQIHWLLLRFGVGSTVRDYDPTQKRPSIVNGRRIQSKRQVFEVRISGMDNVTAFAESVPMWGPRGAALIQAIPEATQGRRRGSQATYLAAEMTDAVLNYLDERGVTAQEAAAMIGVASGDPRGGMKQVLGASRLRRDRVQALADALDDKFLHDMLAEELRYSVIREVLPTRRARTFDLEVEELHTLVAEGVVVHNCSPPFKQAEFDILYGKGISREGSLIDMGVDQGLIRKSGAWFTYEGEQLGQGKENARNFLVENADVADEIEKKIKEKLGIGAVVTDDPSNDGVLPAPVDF", "test": "Fluorescence Cell-Free Homogeneous Dose Retest to Identify Inhibitors of RecA-Intein Splicing Activity. [Related pubchem assays (depositor defined):AID2097, AID2223, AID489010, AID492950]", "format": "functional"}, "[1]": {"biological_target": "T2, Replicative DNA helicase DnaB (Mycobacterium tuberculosis, UniProt P9WMR3)", "T2 sequence (P9WMR3 whole entry)": "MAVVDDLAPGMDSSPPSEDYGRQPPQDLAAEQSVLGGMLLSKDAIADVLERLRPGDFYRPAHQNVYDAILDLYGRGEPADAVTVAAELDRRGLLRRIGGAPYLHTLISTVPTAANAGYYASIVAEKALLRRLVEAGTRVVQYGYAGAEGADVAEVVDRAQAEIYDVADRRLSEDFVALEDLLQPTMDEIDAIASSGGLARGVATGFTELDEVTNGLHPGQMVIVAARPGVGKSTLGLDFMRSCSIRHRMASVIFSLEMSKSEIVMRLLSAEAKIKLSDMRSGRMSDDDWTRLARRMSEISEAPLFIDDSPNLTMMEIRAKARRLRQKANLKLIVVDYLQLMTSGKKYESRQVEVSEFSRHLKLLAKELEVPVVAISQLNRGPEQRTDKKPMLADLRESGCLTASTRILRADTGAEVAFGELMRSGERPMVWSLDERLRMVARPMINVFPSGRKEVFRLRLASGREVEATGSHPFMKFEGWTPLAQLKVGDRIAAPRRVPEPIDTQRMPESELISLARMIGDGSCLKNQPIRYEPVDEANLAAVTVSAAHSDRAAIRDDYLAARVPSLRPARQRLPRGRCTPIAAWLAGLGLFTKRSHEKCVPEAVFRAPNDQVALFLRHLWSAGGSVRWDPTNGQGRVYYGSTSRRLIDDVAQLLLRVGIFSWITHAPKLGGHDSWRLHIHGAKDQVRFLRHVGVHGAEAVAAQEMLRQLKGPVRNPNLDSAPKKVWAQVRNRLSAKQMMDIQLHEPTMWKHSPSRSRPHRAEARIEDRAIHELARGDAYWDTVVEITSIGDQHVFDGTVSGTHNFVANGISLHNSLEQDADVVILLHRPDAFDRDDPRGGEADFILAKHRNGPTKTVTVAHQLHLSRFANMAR", "test": "DnaB intein splicing inhibitors, dose response, biochemical, cell-free fluorescence (AID 449749)", "format": "functional"}, "[2]": {"test": "Intein inhibitors as potential Tuberculosis drugs, a cytotoxicity screen. [Related pubchem assays (depositor defined):AID2221, AID2223, AID434968, AID435010, AID449749, AID449750, AID489010]", "format": "functional"}, "Trypsin": {"biological_target": "Trypsin (Sus scrofa, UniProt P00761)", "sequence (P00761 whole entry)": "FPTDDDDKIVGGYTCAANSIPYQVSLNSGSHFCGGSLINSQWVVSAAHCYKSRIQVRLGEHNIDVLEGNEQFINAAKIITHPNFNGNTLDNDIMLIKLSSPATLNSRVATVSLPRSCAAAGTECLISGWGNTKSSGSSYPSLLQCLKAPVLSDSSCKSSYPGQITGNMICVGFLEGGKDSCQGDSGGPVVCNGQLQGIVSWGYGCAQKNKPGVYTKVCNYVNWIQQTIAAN", "test": "trypsin protease activity blockade – biochemical, quenched peptide fluorescence, cherry-pick, selectivity assay for Rce1 protease inhibitor project, dose response (AID 488789)"}, "CAAX prenyl protease 2 [3]": {"biological_target": "T3, CAAX prenyl protease 2 (Homo sapiens, UniProt Q9Y256)", "T3 sequence (Q9Y256 whole entry)": "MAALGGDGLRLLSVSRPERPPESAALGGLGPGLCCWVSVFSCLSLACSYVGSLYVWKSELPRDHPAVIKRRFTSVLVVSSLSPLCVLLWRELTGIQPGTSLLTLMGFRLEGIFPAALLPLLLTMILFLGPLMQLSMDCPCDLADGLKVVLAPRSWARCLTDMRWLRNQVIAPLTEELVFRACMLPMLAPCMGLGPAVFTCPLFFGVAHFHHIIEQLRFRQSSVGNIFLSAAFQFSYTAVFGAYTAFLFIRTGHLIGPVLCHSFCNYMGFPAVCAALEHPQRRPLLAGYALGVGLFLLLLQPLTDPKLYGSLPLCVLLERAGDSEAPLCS", "test": "inhibition of Ras-converting CAAX protease Rce1 – biochemical, yeast membranes, quenched-peptide fluorescence, cherry-pick, dose response (AID 588849)"}, "CAAX prenyl protease 2 [4]": {"biological_target": "T4, CAAX prenyl protease 2 (Saccharomyces cerevisiae S288c, UniProt Q03530)", "T4 sequence (Q03530 whole entry)": "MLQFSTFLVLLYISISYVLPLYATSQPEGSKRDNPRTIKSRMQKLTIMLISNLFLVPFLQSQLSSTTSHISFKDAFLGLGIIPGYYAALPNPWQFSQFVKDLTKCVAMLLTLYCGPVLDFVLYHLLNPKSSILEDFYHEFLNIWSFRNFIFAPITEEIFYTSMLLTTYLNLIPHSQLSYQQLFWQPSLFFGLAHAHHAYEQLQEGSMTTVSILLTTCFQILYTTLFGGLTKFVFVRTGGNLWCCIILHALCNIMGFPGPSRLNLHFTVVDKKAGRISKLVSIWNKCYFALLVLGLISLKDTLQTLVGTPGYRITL", "format": "biochemical"}, "Hexokinase": {"biological_target": "T5, Hexokinase (Trypanosoma brucei, UniProt Q38C41)", "T5 sequence (Q38C41 whole entry)": "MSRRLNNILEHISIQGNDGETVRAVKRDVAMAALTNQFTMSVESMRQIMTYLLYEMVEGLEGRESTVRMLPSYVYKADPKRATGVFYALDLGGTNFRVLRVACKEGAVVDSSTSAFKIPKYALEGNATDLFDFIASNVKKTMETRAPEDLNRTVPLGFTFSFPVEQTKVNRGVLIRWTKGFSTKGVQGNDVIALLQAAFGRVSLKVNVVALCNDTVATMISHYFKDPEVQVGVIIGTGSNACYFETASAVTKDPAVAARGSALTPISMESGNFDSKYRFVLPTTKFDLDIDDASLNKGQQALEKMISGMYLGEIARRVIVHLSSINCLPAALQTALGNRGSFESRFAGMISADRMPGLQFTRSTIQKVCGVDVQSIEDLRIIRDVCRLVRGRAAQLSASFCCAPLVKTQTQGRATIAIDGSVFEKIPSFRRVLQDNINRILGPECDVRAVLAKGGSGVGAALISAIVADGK", "test": "Confirmation assay for inhibitors of Trypanosoma brucei hexokinase 1-Analogue-first series. [Related pubchem assays (depositor defined):AID1430, AID1632, AID2516, AID2560, AID2579, AID2600, AID449725, AID492951]", "format": "functional"}}, "note": "Calls of active or inactive are those of the source.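 For CC50 in this document: cells exposed to compound for 72 hours before luminescence readout.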"}
{"smiles": "COC(=O)c1sc(-c2ccc(Cl)cc2)cc1NC(=O)/C=C/C(=O)O", "values": [{"measurement": "EC50", "setting": "Protein RecA", "value": "2.44 µM (active)"}, {"measurement": "AC50", "setting": "[1]", "value": "4.02 µM (active)"}, {"measurement": "CC50", "setting": "[2]", "value": "24.2 µM (active)"}]}
{"smiles": "O=C(O)c1ccccc1NCCO", "values": [{"measurement": "AC50", "setting": "Trypsin", "value": "8.2 µM (active)"}, {"measurement": "AC50", "setting": "CAAX prenyl protease 2 [3]", "value": "5.81 µM (active)"}, {"measurement": "AC50", "setting": "CAAX prenyl protease 2 [4]", "value": "16.1 µM (active)"}]}
{"smiles": "COc1ccc(C(=O)Nc2cc(Cl)c(Br)cc2C(=O)O)cc1", "values": [{"measurement": "IC50", "setting": "Hexokinase", "value": "4.59 µM (active)"}]}
{"smiles": "COc1cc(C(=O)Nc2cc(Cl)ccc2C(=O)O)cc(OC)c1OC", "values": [{"measurement": "IC50", "setting": "Hexokinase", "value": "> 25 µM (inactive)"}]}
